Measurements as given in patent publication EP0399834B1, “1,2,4-Triazole derivatives, their preparation and their use for treating hypertension or respiratory tract disorders” (Beecham Group p.l.c., priority 1989, dated 1990).

Test system: Spontaneously hypertensive rats
Test: Antihypertensive activity: systolic blood pressure by tail cuff method
Type: in vivo
Conditions: maximum at 1-4 hours post dose
Experimental: Systolic blood pressures were recorded by a modification of the tail cuff method described by I.M. Claxton, M.G. Palfreyman, R.H. Poyser, R.L. Whiting, European Journal of Pharmacology, 37, 179 (1976). A W+W BP recorder, model 8005 was used to display pulses. Prior to all measurements rats were placed in a heated environment (33.5 ± 0.5 °C) before transfer to a restraining cage. Each determination of blood pressure was the mean of at least 6 readings. Spontaneously hypertensive rats (ages 12-18 weeks) with systolic blood pressures >180 mmHg were considered hypertensive.

Structure (SMILES): Cn1nc(N)nc1N[C@@H]1c2cc(C#N)ccc2OC(C)(C)[C@H]1O (relative stereo) [Example E1, N⁵-[trans-4-(6-Cyano-2,3-dihydro-2,2-dimethyl-2H-benzopyran-3-ol)]-1-methyl-1H-1,2,4-triazole-3,5-diamine]
- % b.p. fall (Dose 0.1 mg/kg): 30%

Structure (SMILES): Cn1ncnc1N[C@@H]1c2cc(C#N)ccc2OC(C)(C)[C@H]1O (relative stereo) [Example E2, trans-N⁵-4-[6-cyano-3,4-dihydro-2,2-dimethyl-2H-benzopyran-3-ol]amino-1-methyl-1H-1,2,4-triazole]
- % b.p. fall (Dose 0.3 mg/kg): 22%

Structure (SMILES): Cc1nc(N[C@@H]2c3cc(C#N)ccc3OC(C)(C)[C@H]2O)n(C)n1 (relative stereo) [Example E4, trans-N⁵-4-[6-Cyano-3,4-dihydro-2,2-dimethyl-2H-benzopyran-3-ol]amino-1,3-dimethyl-1H-1,2,4-triazole]
- % b.p. fall (Dose 1.0 mg/kg): 22%

Structure (SMILES): Cn1nc(N)nc1N[C@@H]1c2cc(C#N)ccc2OC(C)(C)[C@H]1O (relative stereo) [Example E7, (3S,4R)-N⁵-[trans-4-(6-cyano-3,4-dihydro-2,2-dimethyl-2H-1-benzopyran-3-ol)]-1-methyl-1H-1,2,4-triazole-3,5-diamine]
- % b.p. fall (Dose 0.05 mg/kg): 45%
